The source made the active and inactive calls.
Columns and labels:
[1] = target: Ras and Rab interactor 1/Tyrosine-protein kinase ABL1 (Homo sapiens, UniProt P00519+Q13671); type: functional;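 further: biochemical TR-FRET dose-response test measuring inhibition of binding between Rin1 and Abl proteins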
[2] = target: T1, Heat shock factor protein 1 (Mus musculus, UniProt P38532); assay: HSF1 potentiators in luciferase reporter cells, confirmation, cell-based, NIH3T3, luminescence, dose retest (AID 435004); type: functional;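 further: stress induced by proteasome inhibitor MG132 added 30 min after compound; luciferase reporter driven by HSF1 response element in NIH3T3 cells; actives raise luminescence as potentiators of the MG132 stress response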
T1 sequence (P38532 whole entry): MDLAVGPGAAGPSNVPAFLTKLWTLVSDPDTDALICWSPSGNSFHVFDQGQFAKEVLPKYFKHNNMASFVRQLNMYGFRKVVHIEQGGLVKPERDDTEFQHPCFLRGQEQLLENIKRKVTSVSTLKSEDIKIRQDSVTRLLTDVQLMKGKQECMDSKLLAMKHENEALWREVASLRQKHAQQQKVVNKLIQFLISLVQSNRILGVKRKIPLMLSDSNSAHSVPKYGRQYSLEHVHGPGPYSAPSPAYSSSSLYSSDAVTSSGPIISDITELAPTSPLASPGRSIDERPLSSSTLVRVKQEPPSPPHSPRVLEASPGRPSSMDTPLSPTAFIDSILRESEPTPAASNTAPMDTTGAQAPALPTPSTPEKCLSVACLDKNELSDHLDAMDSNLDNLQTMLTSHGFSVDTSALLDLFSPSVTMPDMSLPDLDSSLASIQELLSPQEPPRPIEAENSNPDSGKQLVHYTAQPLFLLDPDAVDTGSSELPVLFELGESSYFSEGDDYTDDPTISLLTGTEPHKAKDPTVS

[3] = target: Heat shock protein HSP 90-alpha (Homo sapiens, UniProt P07900); type: functional, organism-based
CHO-K1 = assay: Counterscreen for antagonists of the orexin 1 receptor (OX1R; HCRTR1): Homogeneous time resolved fluorescence (HTRF)-based cell-based dose response assay to identify antagonists of the parental CHO-K1 cell line. [Related pubchem assays (depositor defined):AID434989, AID435008, AID463079, AID485270, AID492963, AID492964, AID492965, AID493232, AID504699, AID504701]; type: functional; conditions: Cricetulus griseus;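 further: potency for inhibition of ATP-stimulated IP1 production as antagonists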
[4] = Counterscreen for antagonists of the orexin 1 receptor (OX1R; HCRTR1): Fluorescence-based cell-based high throughput dose response assay to identify antagonists of the parental CHO cell line. [Related pubchem assays (depositor defined):AID434989, AID435008, AID463079, AID485270, AID492963, AID492964, AID492965, AID493232, AID504699, AID504701]; type: functional
[5] = target: T2, Orexin/Hypocretin receptor type 1 (Homo sapiens, UniProt O43613); assay: Homogeneous Time Resolved Fluorescence (HTRF)-based cell-based high throughput dose response assay for antagonists of the orexin 1 receptor (OX1R; HCRTR1). [Related pubchem assays (depositor defined):AID434989, AID435008, AID463079, AID485270, AID492963, AID492964, AID492965, AID493232, AID504717, AID504718]; type: functional
T2 sequence (O43613 whole entry): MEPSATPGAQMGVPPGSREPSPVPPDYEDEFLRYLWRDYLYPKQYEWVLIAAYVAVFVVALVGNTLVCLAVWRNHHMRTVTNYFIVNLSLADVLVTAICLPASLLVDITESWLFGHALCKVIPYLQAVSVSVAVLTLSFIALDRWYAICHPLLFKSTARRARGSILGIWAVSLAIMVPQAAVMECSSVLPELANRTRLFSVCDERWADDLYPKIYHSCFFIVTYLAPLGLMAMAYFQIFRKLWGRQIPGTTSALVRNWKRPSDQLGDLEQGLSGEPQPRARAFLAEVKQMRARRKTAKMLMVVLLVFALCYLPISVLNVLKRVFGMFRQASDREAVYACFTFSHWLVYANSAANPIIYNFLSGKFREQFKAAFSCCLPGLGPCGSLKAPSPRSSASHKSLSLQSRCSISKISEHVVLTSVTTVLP

[6] = target: T2, Orexin/Hypocretin receptor type 1; assay: Fluorescence-based cell-based high throughput dose response assay for antagonists of the orexin 1 receptor (OX1R; HCRTR1). [Related pubchem assays (depositor defined):AID434989, AID435008, AID463079, AID485270, AID492963, AID492964, AID492965, AID493232, AID504717, AID504718]; type: functional
Orexin receptor type 2 [7] = target: T3, Orexin receptor type 2 (Homo sapiens, UniProt O43614); assay: Counterscreen assay for antagonists of the orexin 1 receptor (OX1R; HCRTR1): Fluorescence-based cell-based dose response assay for antagonists of the orexin 2 receptor (OX2R; HCRTR2), run by assay provider.; type: functional
T3 sequence (O43614 whole entry): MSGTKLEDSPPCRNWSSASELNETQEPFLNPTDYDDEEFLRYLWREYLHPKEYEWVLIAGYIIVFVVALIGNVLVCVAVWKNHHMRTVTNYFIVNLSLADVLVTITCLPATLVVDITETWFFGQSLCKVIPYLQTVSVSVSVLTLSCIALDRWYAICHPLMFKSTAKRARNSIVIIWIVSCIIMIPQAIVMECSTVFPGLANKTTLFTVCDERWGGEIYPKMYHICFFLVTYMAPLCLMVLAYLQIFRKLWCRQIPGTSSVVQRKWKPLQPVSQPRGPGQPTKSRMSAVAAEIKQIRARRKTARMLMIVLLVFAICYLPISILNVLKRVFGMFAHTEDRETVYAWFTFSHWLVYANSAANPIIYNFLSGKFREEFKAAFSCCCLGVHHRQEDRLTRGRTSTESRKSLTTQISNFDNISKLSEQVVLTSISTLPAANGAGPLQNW

Orexin receptor type 2 [8] = target: T3, Orexin receptor type 2; assay: Counterscreen assay for antagonists of the orexin 1 receptor (OX1R; HCRTR1): Homogeneous Time Resolved Fluorescence (HTRF)-based cell-based dose response assay for antagonists of the orexin 2 receptor (OX2R; HCRTR2), run by assay provider.; type: functional
[9] = target: Luciferin 4-monooxygenase (Photinus pyralis, UniProt P08659); assay: firefly luciferase enzyme inhibitors, dose response, biochemical, luminescence (AID 1891)
Chain of Luciferin 4-monooxygenase (P08659 whole entry): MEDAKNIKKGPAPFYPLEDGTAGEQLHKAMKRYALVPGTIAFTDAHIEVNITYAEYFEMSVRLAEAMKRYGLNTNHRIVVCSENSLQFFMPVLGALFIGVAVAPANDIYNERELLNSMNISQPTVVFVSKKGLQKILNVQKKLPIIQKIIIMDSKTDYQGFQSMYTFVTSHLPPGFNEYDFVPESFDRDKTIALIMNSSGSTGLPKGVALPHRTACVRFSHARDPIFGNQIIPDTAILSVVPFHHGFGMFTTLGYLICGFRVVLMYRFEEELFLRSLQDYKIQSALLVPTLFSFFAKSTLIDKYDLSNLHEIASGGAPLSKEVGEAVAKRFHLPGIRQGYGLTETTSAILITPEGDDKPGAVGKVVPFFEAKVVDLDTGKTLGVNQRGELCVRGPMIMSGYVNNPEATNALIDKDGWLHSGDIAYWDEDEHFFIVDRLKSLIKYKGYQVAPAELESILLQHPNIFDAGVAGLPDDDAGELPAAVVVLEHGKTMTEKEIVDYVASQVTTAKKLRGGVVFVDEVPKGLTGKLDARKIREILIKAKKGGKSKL

[10] = Luminescence Cell-Based Dose Confirmation HTS to Identify Inhibitors of Platelet Dense Granule Release. [Related pubchem assays: 1663 (Primary HTS), 1678 (Summary of Project)]; type: functional
[11] = HepG2 cell cytotoxicity, dose response, cytotoxicity control, ATP luminescence, cherry-pick, activator set 2 (AID 1053143); type: functional, cell-based
[12] = target: T4, Microphthalmia-associated transcription factor (Homo sapiens, UniProt O75030); assay: TRPM1 promoter luciferase signal decrease, dose response, MITF inhibitor project, cell-based, SK-MEL-5, cherry-picked, set 3 (AID 493073); type: functional
T4 sequence (O75030 whole entry): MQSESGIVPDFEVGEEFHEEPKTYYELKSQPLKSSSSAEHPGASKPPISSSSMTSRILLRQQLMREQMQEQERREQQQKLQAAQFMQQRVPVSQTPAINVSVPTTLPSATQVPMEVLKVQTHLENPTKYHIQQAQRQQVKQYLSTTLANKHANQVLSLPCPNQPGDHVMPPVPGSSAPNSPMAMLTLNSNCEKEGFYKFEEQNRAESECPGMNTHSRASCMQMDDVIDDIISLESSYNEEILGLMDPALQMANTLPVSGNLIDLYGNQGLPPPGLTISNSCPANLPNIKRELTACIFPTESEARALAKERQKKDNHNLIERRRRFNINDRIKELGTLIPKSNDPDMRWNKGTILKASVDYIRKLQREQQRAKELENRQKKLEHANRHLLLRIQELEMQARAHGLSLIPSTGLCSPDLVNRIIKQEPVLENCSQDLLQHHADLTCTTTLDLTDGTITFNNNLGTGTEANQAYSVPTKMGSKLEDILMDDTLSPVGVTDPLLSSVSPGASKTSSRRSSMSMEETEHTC

CHO = assay: cytotoxicity in TLR9-MyD88 CHO cells, dose response, cytotoxicity control for TLR9-MyD88 binding inhibitor project, cell-based, luminescence (AID 588339); type: functional, hamster; conditions: Cricetulus griseus;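 further: CHO cells stably coexpressing TLR9 and MyD88 fusions from primary screen; compound exposure lasted 48 hours before viability readout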
[13] = Shn3 3'UTR reporter inhibitors, dose response, cell-based, Clone20 osteoblasts, firefly luciferase, cherry-picked (AID 624132); type: functional;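 further: firefly luciferase luminescence from reporter carrying the Shn3 3'UTR in osteoblasts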
[14] = HepG2 cell cytotoxicity, dose response, cytotoxicity control for Shn3 inhibitor project, CellTiter-Glo, cherry-picked (AID 624134); type: functional, cell-based
[15] = control 3'UTR Renilla luciferase suppression, dose response, counter-screen for Shn3 inhibitor project, cell-based, Clone20-Shn3RL, cherry-picked (AID 624133); type: functional
Paired box protein Pax-8 = Paired box protein Pax-8 (Homo sapiens, UniProt Q06710); assay: inhibitors of PAX8-driven TPO luciferase reporter, dose response, RMG-I cells, cherry-pick (AID 687027); type: functional, cell-based;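 further: luciferase reporter driven by Pax8 target thyroperoxidase promoter measured by SteadyGlo luminescence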
Chain of Paired box protein Pax-8 (Q06710 whole entry): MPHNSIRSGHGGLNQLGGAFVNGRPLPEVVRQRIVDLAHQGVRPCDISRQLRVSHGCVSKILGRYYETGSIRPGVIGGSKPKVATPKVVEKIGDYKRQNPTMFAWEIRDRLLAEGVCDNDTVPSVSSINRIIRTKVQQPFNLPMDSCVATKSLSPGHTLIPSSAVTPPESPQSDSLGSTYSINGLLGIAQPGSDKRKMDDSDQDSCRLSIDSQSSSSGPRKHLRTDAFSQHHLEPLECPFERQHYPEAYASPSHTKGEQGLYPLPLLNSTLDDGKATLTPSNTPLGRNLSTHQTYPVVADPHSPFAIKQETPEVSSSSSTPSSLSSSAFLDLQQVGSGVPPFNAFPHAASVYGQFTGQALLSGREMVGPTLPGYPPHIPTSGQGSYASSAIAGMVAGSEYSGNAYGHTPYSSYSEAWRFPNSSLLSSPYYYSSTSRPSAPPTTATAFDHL

[16] = non-specific cell cytotoxicity, dose response, cytotoxicity control for PAX8 inhibitor project, plate reader, dry powder samples (AID 743021); type: functional, cell-based
[17] = inhibitors of firefly luciferase expression or activity, dose response, H4 neuroglioma cells, luminescence (AID 1990); type: functional, cell-based
BJ [18] = assay: cytotoxicity toward BJ-TERT fibroblasts, dose response, cell-based, RAS-independent, luminescence (AID 1933); type: functional; conditions: Homo sapiens
[19] = Luminescence Cell-Based Dose Response HTS to Identify Inhibitors of 5'UTR Stem-Loop Driven Prion Protein mRNA Translation in H4 Neuroglioblastoma Cells. [Related pubchem assays: 1827 (Project Summary), 1813 (Primary HTS)]; type: functional
[20] = inhibitors of SNCA 5'UTR-driven reporter translation, confirmation, H4 neuroglioma cells, luminescence (AID 1988); type: functional, cell-based
BJ [21] = assay: cells; type: functional, cell-based; conditions: Homo sapiens
[22] = microbe, parasite or virus in culture; type: functional; conditions: Mycobacterium tuberculosis
BJ [23] = assay: cytotoxicity toward BJ-TERT-LT-ST fibroblasts, dose response, cell-based, RAS-independent, luminescence (AID 1935); type: functional; conditions: Homo sapiens;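 further: BJ fibroblasts immortalized with TERT plus LT and ST oncogenes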
[24] = cytotoxicity toward DRD oncogenic fibroblasts, dose response, cell-based, non-viral oncogenic, luminescence (AID 1934); type: functional; conditions: Homo sapiens
[25] = cytotoxicity in HEK-293T cells, dose response, cytotoxicity control for TCR NF-kB inhibitor project, luminescence, T-cell screen hits (AID 489026); type: functional, cell-based;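 further: cells exposed to compound about 14 hours before the viability readout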
BJ [26] = assay: cytotoxicity toward Ras-transformed BJeLR fibroblasts, dose response, cell-based, alamar blue fluorescence, cherrypicked samples (AID 2631); type: functional; conditions: Homo sapiens;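 further: confirmatory dose-response assay in RAS-dependent BJ fibroblasts engineered with TERT, LT and ST, with cytotoxicity read by fluorescence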
[27] = HEp-2 cell cytotoxicity, dose response, cytotoxicity control for RSV inhibitor project, HTS (AID 2410); type: functional; conditions: human respiratory syncytial virus

Chain of Ras and Rab interactor 1/Tyrosine-protein kinase ABL1 (P00519 whole entry): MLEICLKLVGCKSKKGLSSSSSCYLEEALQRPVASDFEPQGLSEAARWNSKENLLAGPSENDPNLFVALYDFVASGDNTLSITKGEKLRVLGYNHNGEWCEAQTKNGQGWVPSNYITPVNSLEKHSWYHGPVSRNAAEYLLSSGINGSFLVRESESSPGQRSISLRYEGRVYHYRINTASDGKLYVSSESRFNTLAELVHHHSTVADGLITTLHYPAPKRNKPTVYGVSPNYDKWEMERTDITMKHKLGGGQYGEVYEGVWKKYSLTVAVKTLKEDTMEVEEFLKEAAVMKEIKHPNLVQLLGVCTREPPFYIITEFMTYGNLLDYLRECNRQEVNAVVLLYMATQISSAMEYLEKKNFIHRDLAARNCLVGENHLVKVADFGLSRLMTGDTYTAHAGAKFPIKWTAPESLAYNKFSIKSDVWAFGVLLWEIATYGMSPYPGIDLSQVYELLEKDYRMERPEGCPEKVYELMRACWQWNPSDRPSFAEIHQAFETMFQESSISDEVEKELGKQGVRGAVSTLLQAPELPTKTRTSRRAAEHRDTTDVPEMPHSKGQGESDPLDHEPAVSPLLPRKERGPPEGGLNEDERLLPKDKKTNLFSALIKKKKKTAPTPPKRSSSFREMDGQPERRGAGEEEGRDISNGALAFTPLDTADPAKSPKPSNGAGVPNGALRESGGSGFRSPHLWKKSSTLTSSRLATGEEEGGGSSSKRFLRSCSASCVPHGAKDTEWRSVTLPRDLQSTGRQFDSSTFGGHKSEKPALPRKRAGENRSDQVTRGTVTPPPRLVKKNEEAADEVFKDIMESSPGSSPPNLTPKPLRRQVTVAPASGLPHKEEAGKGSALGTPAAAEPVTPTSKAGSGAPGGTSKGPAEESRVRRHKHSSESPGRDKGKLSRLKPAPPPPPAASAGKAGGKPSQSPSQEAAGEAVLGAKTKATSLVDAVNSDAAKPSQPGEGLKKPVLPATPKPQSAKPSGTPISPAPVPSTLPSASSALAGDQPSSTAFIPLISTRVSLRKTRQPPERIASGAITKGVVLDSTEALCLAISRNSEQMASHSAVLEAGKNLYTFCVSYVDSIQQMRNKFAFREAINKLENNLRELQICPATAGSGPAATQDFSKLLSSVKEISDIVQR
Chain of Ras and Rab interactor 1/Tyrosine-protein kinase ABL1 (Q13671 whole entry): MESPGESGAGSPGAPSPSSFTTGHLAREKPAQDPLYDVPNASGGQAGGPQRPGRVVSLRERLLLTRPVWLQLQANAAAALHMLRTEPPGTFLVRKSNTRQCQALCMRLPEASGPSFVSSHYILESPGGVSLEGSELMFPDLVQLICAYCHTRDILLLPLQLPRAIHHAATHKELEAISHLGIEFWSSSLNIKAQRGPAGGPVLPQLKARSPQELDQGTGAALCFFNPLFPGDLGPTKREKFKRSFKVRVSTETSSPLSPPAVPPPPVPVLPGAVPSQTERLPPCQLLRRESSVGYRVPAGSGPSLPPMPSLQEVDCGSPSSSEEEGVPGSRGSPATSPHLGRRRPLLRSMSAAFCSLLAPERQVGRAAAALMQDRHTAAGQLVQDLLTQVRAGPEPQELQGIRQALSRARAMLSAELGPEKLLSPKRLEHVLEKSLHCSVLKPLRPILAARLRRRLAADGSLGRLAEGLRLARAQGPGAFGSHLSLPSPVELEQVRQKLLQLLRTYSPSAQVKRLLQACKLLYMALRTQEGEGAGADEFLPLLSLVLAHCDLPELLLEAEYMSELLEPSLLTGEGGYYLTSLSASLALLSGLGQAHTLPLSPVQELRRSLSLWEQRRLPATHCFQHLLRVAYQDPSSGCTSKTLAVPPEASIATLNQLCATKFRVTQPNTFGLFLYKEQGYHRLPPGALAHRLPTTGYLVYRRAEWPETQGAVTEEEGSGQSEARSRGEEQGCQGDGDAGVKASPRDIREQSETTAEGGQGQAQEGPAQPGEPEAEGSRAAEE

Cn1c(=O)c2c(nc(-n3ccnc3)n2Cc2ccc(Cl)cc2Cl)n(C)c1=O
IC50 [1]: 2.62 µM (active)

O=C(c1ccc2c(=O)n(C3CCCC3)c(=S)[nH]c2c1)N1CCc2ccccc21
EC50 [2]: > 260 µM (inactive) | AC50 [3]: 3.49 µM (active)

CCOC(=O)N1CCN(C(=O)CSc2ccc(-c3ccccc3)nn2)CC1
IC50 (CHO-K1): > 66.2 µM (inactive) | IC50 [4]: > 49.7 µM (inactive) | IC50 [5]: 2.12 µM (active) | IC50 [6]: 16.3 µM (inactive) | IC50 (Orexin receptor type 2 [7]): > 88.8 µM (inactive) | IC50 (Orexin receptor type 2 [8]): > 50 µM (inactive)

CC1(C(=O)c2ccccc2)C2c3c(ccc4ccccc34)OC(=O)C21C(=O)N1CCOCC1 (configuration not stated)
AC50 [3]: 4.17 µM (active)

COc1cccc2oc3ccc(C#Cc4ccccn4)cc3c(=O)c12
EC50 [9]: 1.19 µM (active) | EC50 [10]: 5.1 µM (active) | IC50 (CHO-K1): > 66.2 µM (inactive) | IC50 [4]: > 49.8 µM (inactive) | IC50 [5]: 0.881 µM (active) | IC50 [6]: 13.5 µM (inactive) | IC50 (Orexin receptor type 2 [7]): > 88.8 µM (inactive) | IC50 (Orexin receptor type 2 [8]): 0.82 µM (active) | AC50 [11]: 16.4 µM (active)

Cc1noc(C)c1COc1ccc(C(=O)OCC(=O)N2CC(=O)Nc3ccccc32)cc1
IC50 (CHO-K1): > 66.2 µM (inactive) | IC50 [4]: > 49.8 µM (inactive) | IC50 [5]: 14.9 µM (inactive) | IC50 [6]: 0.861 µM (active) | IC50 (Orexin receptor type 2 [7]): > 88.8 µM (inactive) | IC50 (Orexin receptor type 2 [8]): > 50 µM (inactive)

CS(=O)(=O)c1ccc(C(=O)OCC(=O)NCc2cccs2)cc1[N+](=O)[O-]
AC50 [12]: 11.7 µM (active) | IC50 (CHO): 4.83 µM (active) | AC50 [13]: 2.07 µM (active) | AC50 [14]: 62.3 µM (active) | AC50 [15]: 13.4 µM (active) | AC50 (Paired box protein Pax-8): 14 µM (active) | AC50 [16]: 26 µM (active)

Cc1c(CCCl)c(Cl)n2c(nc3ccccc32)c1C#N
AC50 [3]: 3.86 µM (active) | AC50 [13]: 0.912 µM (active) | AC50 [14]: 8.13 µM (active) | AC50 [15]: 2.98 µM (active)

CCCCOc1ccc(Br)cc1/C(C)=N/NC1=NCCN1
EC50 [17]: 4.71 µM (inconclusive) | EC50 (BJ [18]): 3.18 µM (inconclusive) | EC50 [19]: 4.92 µM (active) | EC50 [20]: 3.86 µM (active) | EC50 (BJ [21]): 8.49 µM (inconclusive) | CC50 [22]: 8.31 µM (active) | EC50 (BJ [23]): 6.41 µM (inconclusive) | EC50 [24]: 6.08 µM (active) | IC50 [25]: 46.8 µM (inactive) | EC50 (BJ [26]): 0.619 µM (inconclusive)

C(=N\Nc1nc2ccccc2[nH]1)/c1ccc2ncccc2c1
CC50 [27]: 2.99 µM (active) | EC50 (BJ [18]): 10.8 µM (active) | EC50 (BJ [21]): 2.75 µM (inconclusive) | EC50 (BJ [23]): 30.7 µM (active) | EC50 [24]: 2.32 µM (inconclusive) | EC50 (BJ [26]): > 133 µM (inactive)

Reference: ChEMBL document CHEMBL1201862, “PubChem BioAssay data set” (2004)
